Measurements reported in US20220242812A1, “SWELL1-LRRC8 COMPLEX MODULATORS” (Washington University, priority 2019, published 2022).
Entries after “also recorded” stand apart in the source; their conditions may differ. Where two headings read alike, the source gives them in different places.

Experiments:
[1] = biological target: T1, SWELL1-LRRC8 channel (ICl,SWELL) in HEK-293 cells (Homo sapiens, UniProt Q8IWT6); test: ICl,SWELL inhibition after hypotonic activation, patch-clamp in HEK-293 cells; assay type: cell-based
T1 construct: endogenous in cells; host or cells: HEK-293 (ATCC CRL-1573)
Protocol: Mean presented±SEM. Two-tailed unpaired t-test was used. *, **, and *** represents p<0.05, p<0.01 and p<0.001, respectively.
Patch-clamp recordings of β-cells and mature adipocytes were performed as described previously (Kang et al., 2018; Zhang et al., 2017). 3T3-F442A WT and KO preadipocytes were prepared as described in the Cell culture section above. For SWELL1 overexpression recordings, preadipocytes were first transduced with Ad5-CAG-LoxP-stop-LoxP-3×Flag-SWELL1 (MOI 12) in 2% FBS culture medium for two days and then overexpression induced by adding Ad5-CMV-Cre-wt-lRES-eGFP (MOI 10-12) in 2% FBS culture medium for two more days and changed to 10% FBS containing culture media and were selected based on GFP expression (˜2-3 days). For cell recordings, islets were transduced with Ad-RIP2-GFP and then dispersed after 48-72 hours for patch-clamp experiments. GFP+ cells marked β-cells selected for patch-clamp recordings. […] Recordings were measured using […] amplifier paired to a Digidata 1550 digitizer using pClamp 10.4 software. The extracellular buffer composition for hypotonic stimulation contains 90 mM NaCl, 2 mM CsCl, 1 mM MgCl, 1 mM CaCb, 10 mM HEPES, 10 mM Mannitol, pH 7.4 with NaOH (210 mOsm/kg). The extracellular isotonic buffer composition is same as above except for Mannitol concentration of 110 mM (300 mOsm/kg). The composition of intracellular buffer is 120 mM L-aspartic acid, 20 mM CsCl, 1 mM MgCl, 5 mM EGTA, 10 mM HEPES, 5 mM MgATP, 120 mM CsOH, 0.1 mM GTP, pH 7.2 with CsOH. All recordings were carried out at room temperature (RT) with HEK-293 cells, β-cells and 3T3-F442A cells performed in whole-cell configuration and human adipocytes in perforated-patch configuration, as previously described (Kang et al., 2018; Zhang et al., 2017).

[2] = test system: Caco-2 cell monolayer; test: Caco-2 permeability assay; assay type: in vitro ADME
Protocol: (§1) In vitro ADMET studies were performed at Charles River Laboratory as outlined below. For the Caco-2 permeability assay, the cells were cultured (DMEM, 10% FBS, 1% L-Glutamax and 1% PenStrep) for 21 days. HBSS was used as the transport buffer and the TEER measurements were taken before the start of the assay. Compounds were added apical side to determine apical to basolateral transport (A-B) and basal side to determine basolateral to apical transport (B-A). Samples (10 μL) were collected at time 0 and 2 h and diluted (5×) with transport buffer. After the quenching reaction, the samples were further diluted in MilliQ water for bioanalysis. The TEER measurements were carried out at the end of the assay and wells with significant decrease in post-assay TEER values were not included in the data and repeated again. The analyte levels (peak area ratios) were measured on apical (A) and basolateral (B) sides at To and T2h-A-B and B-A fluxes were calculated averaging 3 individual measurements. Apparent permeability (Papp, cm/sec) was calculated as dQ (flux)/(dt*area*concentration). The efflux ratio was calculated by Papp(B-A)/[…]. For the microsomal metabolic stability assay, the microsomes were diluted in potassium phosphate buffer to maintain at a final concentration of 0.5 mg/ml in the assay procedure. The compounds were diluted 10-fold in acetonitrile and incubated with the microsomes at 37° C. with gentle shaking. Samples were collected at different timepoints and quenched. The samples were mixed by vortexing for 10 min and centrifuged at 3100 rpm for 10 min at 4° C. The supernatant was diluted in water and further analyzed in LC/MS autosampler. Half-life (T1/2) was calculated by the formula 0.692/slope where slope is ln(% remaining relative to Tzero vs time). Intrinsic clearance was calculated using the (CLn1)=T112*1/initial concentration*mg prep/g liver*g liver/kg body weight. For the cytochrome P450 inhibition assay, the cofactors and substrate were mixed in Potassium phosphate buffer. A stock concentration of 10 mM compounds (in DMSO) were diluted 5-fold in acetonitrile and mixed with cofactor/substrate mixture (2×). Human liver microsomes were diluted in Potassium phosphate buffer for a final concentration (2×) of 0.2 mg/ml and the reaction was initiated by mixing the microsomes with the compound/cofactor/substrate mixture at 37° C. with gentle shaking. Samples were collected at To and T30 min timepoints and quenched. The samples were then centrifuged at 3100 rpm for 5 min at 5-10° C. and the supernatant was diluted in water and further analyzed in LC/MS autosampler. % inhibition was calculated (using peak area ratios) relative to zero inhibition (full activity) and no activity (full inhibition).

[3] = Caco-2 permeability assay; assay type: in vitro ADME; conditions: human, Caco-2; for Papp at 2 h: apparent permeability, read-out: Caco-2 10^−6 cm/s
Protocol: as §1

[4] = biological target: T2, CYP 2C9 (Homo sapiens, UniProt P11712); test: Cytochrome P450 inhibition assay, CYP 2C9; assay type: in vitro ADME; conditions: human liver microsomes
T2 construct: Human liver microsomes were diluted in Potassium phosphate buffer; tissue Charles River Laboratory (performed the study); host or cells: human liver microsomes

[5] = Microsomal metabolic stability assay; assay type: in vitro ADME; conditions: human liver microsomes; read-out: Human hepatic microsome stability Clintrinsic
Protocol: In vitro ADMET studies were performed at Charles River Laboratory as outlined below. For the Caco-2 permeability assay, the cells were cultured (DMEM, 10% FBS, 1% L-Glutamax and 1% PenStrep) for 21 days. HBSS was used as the transport buffer and the TEER measurements were taken before the start of the assay. Compounds were added apical side to determine apical to basolateral transport (A-B) and basal side to determine basolateral to apical transport (B-A). Samples (10 μL) were collected at time 0 and 2 h and diluted (5×) with transport buffer. After the quenching reaction, the samples were further diluted in MilliQ water for bioanalysis. […] The analyte levels (peak area ratios) were measured on apical (A) and basolateral (B) sides at To and T2h-A-B and B-A fluxes were calculated averaging 3 individual measurements. Apparent permeability (Papp, cm/sec) was calculated as dQ (flux)/(dt*area*concentration). The efflux ratio was calculated by Papp(B-A)/Papp(B-A). […] The supernatant was diluted in water and further analyzed in LC/MS autosampler. Half-life (T1/2) was calculated by the formula 0.692/slope where slope is ln(% remaining relative to Tzero vs time). Intrinsic clearance was calculated using the (CLn1)=T112*1/initial concentration*mg prep/g liver*g liver/kg body weight. […]

[6] = test system: islets, glucose-stimulated insulin secretion; test: Islet perifusion GSIS assay, islets from treated T2D mice; assay type: in vivo
Protocol: For patch-clamp studies involving primary mouse cells, the mice were anesthesized by injecting Avertin (0.0125 g/ml in H2O) followed by cervical dislocation. […] Perifusion buffer contained (in mM): 120 NaCl, 24 NaHCO3, 4.8 KCl, 2.5 CaCl, 1.2 MgSO4, 10 HEPES, 2.8 glucose, 27.2 mannitol, 0.25% w/v bovine serum albumin, pH 7.4 with NaOH (300 mOsm/kg). Perifusion buffer kept at 37° C. was circulated at 120 μI/min After 48 min of washing with 2.8 mM glucose solution for stabilization, islets were stimulated with the following sequence: 16 min of 16.7 mM glucose, 40 min of 2.8 mM glucose, 10 min of 30 mM KCl, and 12 min of 2.8 mM glucose. Osmolarity was matched by adjusting mannitol concentration when preparing solution containing 16.7 mM glucose. Serial samples were collected either every 1 or 2 min into 96 wells kept at 4° C. Insulin concentrations were further determined using commercially available ELISA kit (Mercodia). The area under the curve (AUC) for the high-glucose induced insulin release was calculated for time points between 50 to 74/84 min. At the completion of the experiments, islets were further lysed by addition of RIPA buffer and the amount of insulin was detected by ELISA.

Row | Structure (SMILES) | On-target inhibition of ICl,SWELL ([1]; HEK-293 cells, hypotonic (210 mOsm), 10 and 7 μM, relative to SN-401) | Caco-2 efflux ranking [2] | Caco-2 permeability ranking [2] | Papp at 2 h [3] [×10⁻⁶ cm/s] | efflux ratio at 2 h ([3]; read-out: Caco-2 efflux ratio B-A/A-B) | IC50 [4] [µM] | CLint scaled [5] [mL/min/kg] | Insulin secretion in perifusion GSIS ([6]; islets of HFD T2D mice, compared to SN071) | Concentration required for inhibiting activated SWELL1-LRRC8 ([1]; upon hypotonic stimulation) [µM] | Caco-2 efflux ranking ([2]; Caco-2) | Caco-2 cell monolayer permeability ([2]; in words) | Perifusion GSIS from isolated islets ([6]; HFD mice, 21 weeks HFD)
1 | CCCCC1(C2CCCC2)Cc2cc(OCCCCCC(=O)O)c(Cl)c(Cl)c2C1=O (stereo not shown) [SN-406, 6-((2-butyl-6,7-dichloro-2-cyclopentyl-1-oxo-2,3-dihydro-1H-inden-5-yl)oxy)hexanoic acid] | maintained or enhanced; also recorded: increase | Not | Higher | 1.93 | 1.58 | > 10 | 46.4 | significantly augmented | – | – | – | –
2 | CCCCC1(C2CCCC2)Cc2cc(OCCCC(=O)O)c(Cl)c(Cl)c2C1=O (stereo not shown) [SN-401, 4-((2-butyl-6,7-dichloro-2-cyclopentyl-1-oxo-2,3-dihydro-1H-inden-5-yl)oxy)butanoic acid] | – | – | Higher | 8.24 | – | < 10 | 72.7 | – | ~10 | Not | good | significantly improved
